Assay results as given in ChEMBL document CHEMBL3885881, “DrugMatrix”.

Organism: Rattus norvegicus
Assay: DrugMatrix - Regimen: Daily Repeat
Type: toxicity, organism-based, Sprague-Dawley
Parameters: regimen Daily Repeat, gender Male, age 6-8 weeks
Details: in vivo, iv, vehicle 100 % SALINE; for ABSOLUTE BASOPHIL / ABSOLUTE EOSINOPHIL / ABSOLUTE LYMPHOCYTE / ABSOLUTE MONOCYTE / ABSOLUTE SEGMENTED NEUTROPHIL / BASOPHIL / EOSINOPHIL / ERYTHROCYTE COUNT / HEMATOCRIT / HEMOGLOBIN / LEUKOCYTE COUNT / LYMPHOCYTE / MEAN CORPUSCULAR HEMOGLOBIN / MEAN CORPUSCULAR HEMOGLOBIN CONCENTRATION / MEAN CORPUSCULAR VOLUME / MONOCYTE / NEUTROPHIL / NUCLEATED RED BLOOD CELLS / PLATELET COUNT: tissue Blood; for ALANINE AMINOTRANSFERASE / ALBUMIN / ALKALINE PHOSPHATASE / ASPARTATE AMINOTRANSFERASE / BLOOD UREA NITROGEN / CARBON DIOXIDE / CHLORIDE / CHOLESTEROL / CREATINE PHOSPHOKINASE / CREATININE / GLUCOSE / LACTATE DEHYDROGENASE / LIPASE / PHOSPHORUS / POTASSIUM / SODIUM / TOTAL BILIRUBIN / TOTAL PROTEIN / URIC ACID: tissue Plasma
[1] = 0 mg/kg, 72 h, dose level Control, time 3 day
[2] = 0 mg/kg, 120 h, dose level Control, time 5 day
[3] = 0.005 mg/kg, 72 h, dose level Low, time 3 day

## CC(=O)O[C@H]1C[C@@H]2CC[C@@H]3[C@H](CC[C@@]4(C)[C@H]3C[C@H]([N+]3(C)CCCCC3)[C@@H]4OC(C)=O)[C@@]2(C)C[C@@H]1N1CCCCC1.[Br-] [VECURONIUM BROMIDE]
[1]
  ABSOLUTE BASOPHIL: 0 CELLS/uL
  ABSOLUTE EOSINOPHIL: 0 CELLS/uL
  ABSOLUTE LYMPHOCYTE: 11636.83 CELLS/uL
  ABSOLUTE MONOCYTE: 159 CELLS/uL
  ABSOLUTE SEGMENTED NEUTROPHIL: 1170.83 CELLS/uL
  BASOPHIL: 0%
  EOSINOPHIL: 0%
  ERYTHROCYTE COUNT: 5.46 x10E6/uL
  HEMATOCRIT: 34.05%
  HEMOGLOBIN: 13.58 G/DL
  LEUKOCYTE COUNT: 12.97 x10E3/uL
  LYMPHOCYTE: 89.67%
  MEAN CORPUSCULAR HEMOGLOBIN: 24.87 pg
  MEAN CORPUSCULAR HEMOGLOBIN CONCENTRATION: 39.9 G/DL
  MEAN CORPUSCULAR VOLUME: 62.3 fL
  MONOCYTE: 1.33%
  NEUTROPHIL: 9%
  NUCLEATED RED BLOOD CELLS: 0.17 /100WBC
  PLATELET COUNT: 824 x10E3/uL
  ALANINE AMINOTRANSFERASE: 64.83 u/L
  ALBUMIN: 4.08 G/DL
  ALKALINE PHOSPHATASE: 421 u/L
  ASPARTATE AMINOTRANSFERASE: 116.83 u/L
  BLOOD UREA NITROGEN: 16.83 mg/dL
  CARBON DIOXIDE: 28 mmol/L
  CHLORIDE: 101.33 MEQ/L
  CHOLESTEROL: 74.17 mg/dL
  CREATINE PHOSPHOKINASE: 748.5 u/L
  CREATININE: 0.22 mg/dL
  GLUCOSE: 152.83 mg/dL
  LACTATE DEHYDROGENASE: 578.5 u/L
  LIPASE: 9.83 u/L
  PHOSPHORUS: 11.63 mg/dL
  POTASSIUM: 5.93 MEQ/L
  SODIUM: 142.1 MEQ/L
  TOTAL BILIRUBIN: 0.17 mg/dL
  TOTAL PROTEIN: 5.77 G/DL
  URIC ACID: 1.43 mg/dL
[2]
  ABSOLUTE BASOPHIL: 0 CELLS/uL
  ABSOLUTE EOSINOPHIL: 159.17 CELLS/uL
  ABSOLUTE LYMPHOCYTE: 12267.5 CELLS/uL
  ABSOLUTE MONOCYTE: 30 CELLS/uL
  ABSOLUTE SEGMENTED NEUTROPHIL: 1160 CELLS/uL
  BASOPHIL: 0%
  EOSINOPHIL: 1.17%
  ERYTHROCYTE COUNT: 5.52 x10E6/uL
  HEMATOCRIT: 34.3%
  HEMOGLOBIN: 13.73 G/DL
  LEUKOCYTE COUNT: 13.62 x10E3/uL
  LYMPHOCYTE: 90.5%
  MEAN CORPUSCULAR HEMOGLOBIN: 24.92 pg
  MEAN CORPUSCULAR HEMOGLOBIN CONCENTRATION: 40.07 G/DL
  MEAN CORPUSCULAR VOLUME: 62.17 fL
  MONOCYTE: 0.17%
  NEUTROPHIL: 8.17%
  NUCLEATED RED BLOOD CELLS: 0.17 /100WBC
  PLATELET COUNT: 1261.83 x10E3/uL
  ALANINE AMINOTRANSFERASE: 58.67 u/L
  ALBUMIN: 4.15 G/DL
  ALKALINE PHOSPHATASE: 364.67 u/L
  ASPARTATE AMINOTRANSFERASE: 105.33 u/L
  BLOOD UREA NITROGEN: 17.67 mg/dL
  CARBON DIOXIDE: 26.5 mmol/L
  CHLORIDE: 101.67 MEQ/L
  CHOLESTEROL: 63 mg/dL
  CREATINE PHOSPHOKINASE: 480.67 u/L
  CREATININE: 0.17 mg/dL
  GLUCOSE: 144.67 mg/dL
  LACTATE DEHYDROGENASE: 540.33 u/L
  LIPASE: 10.33 u/L
  PHOSPHORUS: 11.52 mg/dL
  POTASSIUM: 6.12 MEQ/L
  SODIUM: 142.45 MEQ/L
  TOTAL BILIRUBIN: 0.18 mg/dL
  TOTAL PROTEIN: 5.73 G/DL
  URIC ACID: 1.48 mg/dL
[3]
  ABSOLUTE BASOPHIL: 0 CELLS/uL
  ABSOLUTE EOSINOPHIL: 199.67 CELLS/uL
  ABSOLUTE LYMPHOCYTE: 11233.67 CELLS/uL
  ABSOLUTE MONOCYTE: 56 CELLS/uL
  ABSOLUTE SEGMENTED NEUTROPHIL: 844 CELLS/uL
  BASOPHIL: 0%
  EOSINOPHIL: 1.33%
  ERYTHROCYTE COUNT: 5.06 x10E6/uL
  HEMATOCRIT: 32.6%
  HEMOGLOBIN: 13.3 G/DL
  LEUKOCYTE COUNT: 12.33 x10E3/uL
  LYMPHOCYTE: 91.67%
  MEAN CORPUSCULAR HEMOGLOBIN: 26.33 pg
  MEAN CORPUSCULAR HEMOGLOBIN CONCENTRATION: 40.8 G/DL
  MEAN CORPUSCULAR VOLUME: 64.5 fL
  MONOCYTE: 0.33%
  NEUTROPHIL: 6.67%
  NUCLEATED RED BLOOD CELLS: 0.33 /100WBC
  PLATELET COUNT: 730.67 x10E3/uL
  ALANINE AMINOTRANSFERASE: 57 u/L
  ALBUMIN: 4.2 G/DL
  ALKALINE PHOSPHATASE: 421.67 u/L
  ASPARTATE AMINOTRANSFERASE: 117.33 u/L
  BLOOD UREA NITROGEN: 19 mg/dL
  CARBON DIOXIDE: 31 mmol/L
  CHLORIDE: 100.67 MEQ/L
  CHOLESTEROL: 72 mg/dL
  CREATINE PHOSPHOKINASE: 975.33 u/L
  CREATININE: 0.22 mg/dL
  GLUCOSE: 155.33 mg/dL
  LACTATE DEHYDROGENASE: 630.33 u/L
  LIPASE: 11.67 u/L
  PHOSPHORUS: 10.7 mg/dL
  POTASSIUM: 6.14 MEQ/L
  SODIUM: 141.83 MEQ/L
  TOTAL BILIRUBIN: 0.2 mg/dL
  TOTAL PROTEIN: 5.87 G/DL
  URIC ACID: 1.03 mg/dL
